Measured values taken from paper PMC9027532, “Preclinical Pharmacokinetic Studies of a Novel Diuretic Inhibiting Urea Transporters” (Molecules, 2022).
Entries after “also recorded” stand apart in the source; their conditions may differ.

Experiments:
[1] = Pharmacokinetic study in rats (plasma, LC-MS/MS, NCA); details: for concentration at 0.083 h / concentration at 0.167 h / concentration at 0.25 h / concentration at 0.5 h / concentration at 1 h / concentration at 2 h / concentration at 4 h / concentration at 6 h / concentration at 8 h / concentration at 12 h / concentration at 24 h: Mean plasma concentration
[2] = system: plasma protein; assay: Plasma protein binding by equilibrium dialysis, human plasma; type: in vitro ADME; details: human plasma, 50, 500, 2500 ng/mL
Description: (§1) The plasma protein binding (PPB) and blood plasma ratio (BPR) are crucial parameters influencing the drug distribution and elimination in plasma. The PPB profile of 25a was evaluated by equilibrium dialysis, a classic method to assess the interactions of small molecules with proteins. The PPB of 25a was tested at 50, 500, and 2500 ng/mL (Table 7). […] When considering the allometric scaling of PK parameters, the species difference of protein binding between humans and rats should be considered.
(§2) The plasma protein binding (PPB) ratio of 25a was assessed via equilibrium dialysis in SD rats and human plasma. Four hundred microliters of plasma containing 50, 500, or 2500 ng/mL 25a were loaded into the dialysis bags (plasma side), and the bags were placed into tubes containing 4 mL of the dialysis buffer (buffer side). The tubes were then rotated at approximately 100 rpm in a humidified incubator with 5% CO2 at 37 ± 1 °C for 5 h.
(§3) After the 5 h dialysis, aliquots of 50 μL samples were taken from both the buffer and the plasma sides. An equal volume of the opposite blank matrix (buffer or plasma) was added to each sample to reach a final volume of 100 μL with a volume ratio of plasma to dialysis buffer at 1:1 (v/v). All samples were further processed by adding 600 μL of stop solution (containing 10 ng/mL IS) to precipitate protein for LC–MS/MS analysis. The PPB ratio (%) was calculated by PPB% = 100% × (1 − Conc.buffer side/Conc.plasma side).

[3] = as above; type: in vitro ADME; details: human, plasma
Description: as §1, §2, §3

[4] = male, Sprague-Dawley, rat, plasma, iv, 1 mg/kg
[5] = male, Sprague-Dawley, rat, plasma, po, 25 mg/kg
[6] = male, Sprague-Dawley, rat, plasma, po, 25 mg/kg, rats, single p.o. 25 mg/kg
[7] = male, Sprague-Dawley, rat, plasma, po, 50 mg/kg
[8] = male, Sprague-Dawley, rat, plasma, po, 50 mg/kg, rats, single p.o. 50 mg/kg
[9] = male, Sprague-Dawley, rat, plasma, po, 100 mg/kg
[10] = male, Sprague-Dawley, rat, plasma, po, 100 mg/kg, rats, multiple p.o. 100 mg/kg, twice per day for 7 days
[11] = male, Sprague-Dawley, rat, plasma, po, 100 mg/kg, rats, single p.o. 100 mg/kg
[12] = male, Sprague-Dawley, rat, plasma, po, 100 mg/kg, rats, multiple p.o. 100 mg/kg

`CC(=O)Nc1ccc(NC(=O)c2ccc(C(C)=O)o2)cc1` [Compound 25a, N-(4-acetamidophenyl)-5-acetylfuran-2-carboxamide] showed an AUC(0-inf) [1, 4] of 503 ± 124 ng·h/mL, an AUC(0-t) [1, 4] of 501 ± 124 ng·h/mL and a C0 [1, 4] of 1710 ± 398 ng/mL. For the same molecule, the MRT ([1]; male, Sprague-Dawley, rat, plasma, iv, 1 mg/kg, rats, single i.v. 1 mg/kg) was 0.6 ± 0.1 h, the half-life ([1]; male, Sprague-Dawley, rat, plasma, iv, 1 mg/kg, t1/2, rats, single i.v. 1 mg/kg) was 0.89 ± 0.52 h and the AUC(0-inf) [1, 5] was 2530 ± 362 ng·h/mL. The AUC(0-t) [1, 5] was 2520 ± 395 ng·h/mL, the CL/F [1, 6] was 165 mL/min/kg and the Cmax [1, 6] was 515 ± 107 ng/mL. For the same molecule, the bioavailability ([1]; male, Sprague-Dawley, rat, plasma, po, 25 mg/kg, F (oral bioavailability), rats, single p.o. 25 mg/kg) was 20.1 ± 0.8%, the MRT [1, 6] was 5.2 ± 0.4 h and the concentration at 0.083 h [1, 6] was 282 ± 62.3 ng/mL. The concentration at 0.167 h [1, 6] was 431 ± 116 ng/mL, the concentration at 0.25 h [1, 6] was 515 ± 122 ng/mL and the concentration at 0.5 h [1, 6] was 167 ± 33.5 ng/mL. The concentration at 1 h [1, 6] was 245 ± 92.5 ng/mL, the concentration at 2 h [1, 6] was 206 ± 83.7 ng/mL and the concentration at 4 h [1, 6] was 372 ± 74.3 ng/mL. It also gave a concentration at 6 h [1, 6] of 230 ± 49.7 ng/mL, a concentration at 8 h [1, 6] of 102 ± 7.7 ng/mL and a concentration at 12 h [1, 6] of 36.8 ± 2.7 ng/mL. The concentration at 24 h [1, 6] was 2.1 ± 1.3 ng/mL, the half-life ([1]; male, Sprague-Dawley, rat, plasma, po, 25 mg/kg, t1/2, rats, single p.o. 25 mg/kg) was 2.86 ± 0.29 h and the Tmax ([1]; male, Sprague-Dawley, rat, plasma, po, 25 mg/kg, tmax, rats, single p.o. 25 mg/kg) was 0.25 h. For the same molecule, the AUC(0-inf) [1, 7] was 4740 ± 854 ng·h/mL, the AUC(0-t) [1, 7] was 4730 ± 854 ng·h/mL and the CL/F [1, 8] was 175 mL/min/kg. The Cmax [1, 8] was 693 ± 260 ng/mL, the bioavailability ([1]; male, Sprague-Dawley, rat, plasma, po, 50 mg/kg, F (oral bioavailability), rats, single p.o. 50 mg/kg) was 18.9 ± 1.7% and the concentration at 0.083 h [1, 8] was 236 ± 93.5 ng/mL. For the same molecule, the concentration at 0.167 h [1, 8] was 380 ± 173 ng/mL, the concentration at 0.25 h [1, 8] was 496 ± 211 ng/mL and the concentration at 0.5 h [1, 8] was 693 ± 272 ng/mL. The concentration at 1 h [1, 8] was 429 ± 149 ng/mL, the concentration at 2 h [1, 8] was 454 ± 97.6 ng/mL and the concentration at 4 h [1, 8] was 553 ± 97.8 ng/mL. It also gave a concentration at 6 h [1, 8] of 383 ± 166 ng/mL, a concentration at 8 h [1, 8] of 271 ± 75.1 ng/mL and a concentration at 12 h [1, 8] of 78.3 ± 36.1 ng/mL. It also gave a concentration at 24 h [1, 8] of 3.6 ± 1.1 ng/mL, a half-life ([1]; male, Sprague-Dawley, rat, plasma, po, 50 mg/kg, t1/2, rats, single p.o. 50 mg/kg) of 2.63 ± 0.2 h and a Tmax ([1]; male, Sprague-Dawley, rat, plasma, po, 50 mg/kg, tmax, rats, single p.o. 50 mg/kg) of 0.5 h. The AUC(0-inf) [1, 9] was 12100 ng·h/mL, the AUC(0-t) [1, 9] was 11800 ng·h/mL and the CL/F [1, 10] was 137 mL/min/kg. It also gave a CL/F [1, 11] of 240 mL/min/kg, a Cmax [1, 10] of 1710 ± 185 ng/mL and a Cmax [1, 11] of 1320 ± 228 ng/mL. The bioavailability ([1]; male, Sprague-Dawley, rat, plasma, po, 100 mg/kg, F (oral bioavailability), rats, multiple p.o. 100 mg/kg, twice per day for 7 days) was 23.5 ± 2.3%, the bioavailability ([1]; male, Sprague-Dawley, rat, plasma, po, 100 mg/kg, F (oral bioavailability), rats, single p.o. 100 mg/kg) was 13.8 ± 0.8% and the MRT [1, 10] was 6.5 ± 0.6 h. It also gave an MRT [1, 11] of 5.3 ± 0.3 h, a concentration at 0.083 h [1, 12] of 681 ± 97 ng/mL and a concentration at 0.083 h [1, 11] of 1080 ± 287 ng/mL. It also gave a concentration at 0.167 h [1, 12] of 936 ± 102 ng/mL, a concentration at 0.167 h [1, 11] of 1320 ± 235 ng/mL and a concentration at 0.25 h [1, 12] of 1090 ± 192 ng/mL. The concentration at 0.25 h [1, 11] was 1210 ± 196 ng/mL, the concentration at 0.5 h [1, 12] was 1260 ± 168 ng/mL and the concentration at 0.5 h [1, 11] was 1030 ± 124 ng/mL. It also gave a concentration at 1 h [1, 12] of 1410 ± 283 ng/mL, a concentration at 1 h [1, 11] of 734 ± 134 ng/mL and a concentration at 2 h [1, 12] of 1710 ± 185 ng/mL. For the same molecule, the concentration at 2 h [1, 11] was 687 ± 146 ng/mL, the concentration at 4 h [1, 12] was 1080 ± 110 ng/mL and the concentration at 4 h [1, 11] was 1130 ± 245 ng/mL. For the same molecule, the concentration at 6 h [1, 12] was 717 ± 196 ng/mL, the concentration at 6 h [1, 11] was 835 ± 178 ng/mL and the concentration at 8 h [1, 12] was 494 ± 111 ng/mL. It also gave a concentration at 8 h [1, 11] of 596 ± 126 ng/mL, a concentration at 12 h [1, 12] of 245 ± 73.6 ng/mL and a concentration at 12 h [1, 11] of 173 ± 36.7 ng/mL. The concentration at 24 h [1, 12] was 28.1 ± 85.9 ng/mL, the concentration at 24 h [1, 11] was 10.9 ± 6.6 ng/mL and the half-life ([1]; male, Sprague-Dawley, rat, plasma, po, 100 mg/kg, half-life, rats, single oral doses 25, 50, 100 mg/kg) was 2.6 to 3 h. It also gave a half-life ([1]; male, Sprague-Dawley, rat, plasma, po, 100 mg/kg, t1/2, rats, multiple p.o. 100 mg/kg, twice per day for 7 days) of 5.03 ± 0.82 h, a Tmax at 7 days ([1]; male, Sprague-Dawley, rat, plasma, po, 100 mg/kg, tmax, rats, multiple p.o. 100 mg/kg, twice per day for 7 days) of roughly 2 h and a Tmax ([1]; male, Sprague-Dawley, rat, plasma, po, 100 mg/kg, tmax, rats, single p.o. 100 mg/kg) of roughly 0.17 h. For the same molecule, the bioavailability ([1]; male, Sprague-Dawley, rat, plasma, po, oral bioavailability, SD rats, oral administration, overall) was no more than 20%, the “time of second plasma peak concentration” value ([1]; rats, after intravenous injection) was “Approximately 2 h” and the “time to reach maximum plasma concentration (Cmax)” value ([1]; rats, after oral administration) was no more than 0.5 h. The “time of second plasma peak concentration” value ([1]; rats, after oral dosing) was roughly 4 h, the V/F ([1]; rats, multiple p.o. 100 mg/kg, twice per day for 7 days) was 59.8 ± 11.8 L/kg and the “bioavailability of 25a relative to lead compound 1H” value ([1]; rats, oral) was “approximately fourfold; also recorded: approximately four times higher”. The “V (V/F row)” value ([1]; rats, single i.v. 1 mg/kg) was 2.6 ± 1.4 L/kg, the V/F ([1]; rats, single p.o. 25 mg/kg) was 40.9 ± 7.4 L/kg and the V/F ([1]; rats, single p.o. 50 mg/kg) was 40.1 ± 10.8 L/kg. For the same molecule, the “AUC0–∞” value ([1]; rats, single p.o. 100 mg/kg) was 6957.4 ± 345.1 ng·h/mL, the V/F ([1]; rats, single p.o. 100 mg/kg) was 63.0 ± 17.6 L/kg and the t1/2 ([1]; rats, single p.o. 100 mg/kg) was 3.04 ± 0.70 h. For the same molecule, the clearance ([1]; read-out: CL (CL/F row), rats, single i.v. 1 mg/kg) was 35 mL/min/kg, the “mean plasma protein binding (PPB)” value [2] was 38.8%–44.1% and the fraction unbound at 5 h, 50 ng/mL ([3]; human plasma, 50 ng/mL) was 0.559. It also gave a fraction unbound at 5 h, 500 ng/mL ([3]; human plasma, 500 ng/mL) of 0.612, a fraction unbound at 5 h, 2500 ng/mL ([3]; human plasma, 2500 ng/mL) of 0.595 and a fraction unbound at 5 h ([3]; human plasma, 50, 500, 2500 ng/mL, read-out: mean plasma protein binding (PPB) (converted)) of roughly 0.6.
